In patent US7838271B2, “Microbiological method for producing amides” (priority 2001, dated 2010):
Where two headings read alike, the source gives them in different places. Marks after values point to notes of the source that are not given here.

Assays:
[1] = test system: purified Rhodococcus sp. FZ4 nitrile hydratase; test: Influence of metal ions on the activity of purified nitrile hydratase; type: biochemical; conditions: metal ions 1.0 mM; no addition = 100
Description: A solution comprising nitrile hydratase solution (0.695 μmol/min; 0.025 ml), potassium phosphate buffer (0.1 M; pH 7.0; 0.475 ml), distilled water (0.150 ml) and different potential inhibitors (0.100 ml) was incubated at 20° C. for 5 min. This was followed by the addition of 3-cyanopyridine (1.0 M; 0.250 ml). The concentration of the inhibitors in the reaction mixture was 1.0 mM. The reaction mixture was incubated at 20° C. for 10 min. The reaction was stopped by adding MeOH. The amount of nicotinamide produced was determined by means of HPLC according to Example 1.
The influence of metal ions on the activity of purified nitrile hydratase was carried out according to Example 24, but with the addition of metal ions instead of potential inhibitors. […]

Rhodococcus sp. FZ4 [2] = test: Influence of cofactors on growth during cultivation; type: cell-based; conditions: basal medium with cofactor 0.004 g/l, 28° C., 2 to 3 days
Description: (§1) The preculture medium of Table 2 was inoculated with strain Rhodococcus sp. FZ4 (DSM 13597), followed by incubation with shaking at 28° C. for 1 to 2 days. The preculture was transferred into the basal medium of Table 3, which contains either CoCl 2 or FeSO4, and cultured with shaking at 28° C. for 2 to 3 days. Nitrile hydratase activity was determined according to Example 1. A nitrile hydratase activity was present only when culturing Rhodococcus sp. FZ4 in the presence of cobalt.

[3] = test system: Rhodococcus sp. FZ4 nitrile hydratase; test: Influence of cofactors on nitrile hydratase activity during cultivation; type: cell-based; conditions: basal medium with cofactor 0.004 g/l, 28° C., 2 to 3 days; substrate 3-cyanopyridine
Description: (§2) Nitrile hydratase activity was determined by incubating a reaction mixture comprising 3-cyanopyridine (1.0 M; 1.0 ml), potassium phosphate buffer (0.1 M, pH 7.0; 0.5 ml) and cell suspension (0.5 ml) with stirring at 20° C. for 5 min. The reaction was stopped by adding HCI (5 M; 0.1 ml). After filtration (0.2 μm filter) of the reaction mixture, the amount of nicotinamide produced was determined by means of HPLC (Waters Spherisorb 5 μ ODS2 (4.6×150 mm); KH2P04/H3P04 (10 mM; pH 2.8)/acetonitrile=9:1 (v/v); 1 ml/min; 230 nm). The total activity is expressed as μmol of nicotinamide produced/ (min×ml) and the specific activity is expressed as μmol of nicotinamide produced/(min×ml×OD610 nm).
as §1, with “1.” for “1. A nitrile hydratase activity was present only when culturing Rhodococcus sp. FZ4 in the presence of cobalt.”

[4] = test system: Rhodococcus sp. FZ4 nitrile hydratase; type: cell-based
Description: as §2
(§3) A cell suspension was incubated at different nicotinamide concentrations in the range from 0 to 20% (w/v) at 20° C. for 24 h. The cells were removed, washed and resuspended in potassium phosphate buffer (0.1 M; pH 7.0).
(§4) The influence of nicotinamide concentration on the nitrile hydratase activities of Rhodococcus sp. FZ4, Rhodococcus sp. GF270, Amycolatopsis sp. NA40 and Rhodococcus rhodochrous J1 was determined according to Example 9 using the respective microorganism and the nicotinamide concentration indicated in Table 11.

[5] = test system: Rhodococcus sp. GF270 nitrile hydratase; type: cell-based
Description: as §2, §3, §4

[6] = test system: Rhodococcus sp. FZ4 nitrile hydratase; type: cell-based; remark: listed apart in the source
Description: as §2
(§5) The preculture medium of Table 2 was inoculated with strain Rhodococcus sp. FZ4 (DSM 13597), followed by incubation with shaking at 28° C. for 1 to 2 days. The preculture was transferred into the culture medium of Table 5, which contained different inducers, and cultured with shaking at 28° C. for 3 days. Nitrile hydratase activity was determined according to Example 1. Rhodococcus sp.

Rhodococcus sp. FZ4 [7] = type: cell-based
Description: as §5

[8] = water; cited from earlier work
[9] = test system: Rhodococcus sp. FZ4 nitrile hydratase; type: cell-based; remark: listed apart in the source
Description: A reaction mixture comprising acetonitrile (0.2-19.0 M; 1.0-1.6 ml), aqueous NaCl solution (0.85% (w/v); 0.6-0.0 ml), potassium phosphate buffer (0.1 M; pH 7.0; 0.3 ml) and cell suspension (0.1 ml) was incubated with shaking at 20° C. for 10 min. The total reaction volume was 2.0 ml. The reaction was stopped by adding MeOH. The reaction mixture was centrifuged (12 000 rpm, 5 min) and the amount of acetamide produced was determined by means of HPLC according to Example 14.

[10] = test system: Rhodococcus sp. FZ4 nitrile hydratase; type: cell-based; conditions: pH 7
Description: The reaction was stopped by adding MeOH. The reaction mixture was centrifuged (12 000 rpm, 5 min) and the amount of acetamide produced was determined by means of HPLC according to Example 14.

[11] = test system: purified Rhodococcus sp. FZ4 nitrile hydratase; conditions: read-out: KM value for acetonitrile; pH 7
Description: The reaction mixture was incubated at 20° C. for 10 min. The reaction was stopped by adding methanol and the amount of acetamide produced was determined by means of HPLC according to Example 14.

[12] = test system: purified Rhodococcus sp. FZ4 nitrile hydratase; test: Substrate specificity of purified nitrile hydratase; type: biochemical
Description: A reaction mixture comprising nitrile hydratase solution (0.695 μmol/min; 0.025 ml), different substrates (0.500 ml) and potassium phosphate buffer (0.1 M; pH 7.0; 0.475 ml) was incubated at 20° C. for 5 to 10 min. The concentrations of the substrates used were in the range from 0.015 to 0.250 M. The reaction was stopped by adding MeOH. The amount of amide produced was determined by means of HPLC.

[13] = test system: Rhodococcus sp. FZ4 nitrile hydratase; test: Substrate specificity of nitrile hydratase activity, resting cells; type: cell-based
Description: as §2
Rhodococcus sp. FZ4 nitrile hydratase activity with respect to different substrates was determined according to Example 1, except that the appropriate substrate was used instead of 3-cyanopyridine and that the HPLC conditions were modified according to the substrate used.

[14] = test system: Rhodococcus sp. FZ4 nitrile hydratase; type: cell-based; conditions: for Relative activity: incubation for 60 min
Description: as §2
(§6) […] The cells were removed, washed and resuspended in potassium phosphate buffer (0.1 M; pH 7.0).
as §4, with “of 3-cyanopyridine” for “of nicotinamide”, “the 3-cyanopyridine concentrations” for “the nicotinamide concentration”, “Table 10.” for “Table 11.”

[15] = test system: Amycolatopsis sp. NA40 nitrile hydratase; type: cell-based; conditions: incubation for 15 min
Description: as §2, §6
as §4, with “of 3-cyanopyridine” for “of nicotinamide”, “the 3-cyanopyridine concentrations” for “the nicotinamide concentration”, “Table 10.” for “Table 11.”

[16] = test system: purified Rhodococcus sp. FZ4 nitrile hydratase; test: KM value for 3-cyanopyridine, purified nitrile hydratase; type: biochemical; conditions: purified enzyme, potassium phosphate buffer pH 7.0, 20° C.
Description: The reaction mixture was incubated at 20° C. for 10 min. The reaction was stopped by adding methanol and the amount of nicotinamide produced was determined by means of HPLC according to Example 1.

[17] = test system: Rhodococcus rhodochrous J1 nitrile hydratase; type: cell-based; conditions: incubation for 15 min
Description: as §2, with “Nitrile hydratase activity was determined by incubating a reaction mixture comprising 3-cyanopyridine (1.0 M; 1.0 ml), potassium phosphate buffer (0.1 M, pH 7.0; 0.5 ml) and cell suspension (0.5 ml) with stirring at 20° C. for 5 min.” left out
as §6
as §4, with “of 3-cyanopyridine” for “of nicotinamide”, “the 3-cyanopyridine concentrations” for “the nicotinamide concentration”, “Table 10.” for “Table 11.”

[18] = test system: Rhodococcus rhodochrous J1 nitrile hydratase; test: Substrate specificity of nitrile hydratase activity (comparison strain); type: cell-based; conditions: compound as substrate; 3-cyanopyridine = 100
[19] = test system: Amycolatopsis sp. NA40 nitrile hydratase; test: KM value for 3-cyanopyridine, resting cells; type: cell-based; conditions: 30° C., pH 7.0
Description: The reaction was stopped by adding HC1(2 M; 0.1 ml).
FZ4, Rhodococcus sp. GF270 (DSM 12211; WO 99/05306), Amycolatopsis sp. NA40 (DSM 11617; WO 99/05306) and Rhodococcus rhodochrous J1 were determined according to Example 11 using the respective microorganism.

[20] = test system: Rhodococcus sp. GF270 nitrile hydratase; type: cell-based; conditions: incubation for 60 min
Description: as §2
A cell suspension was incubated at different 3-cyano-30 pyridine concentrations in the range from 0 to 10% (w/v) at 20° C. for 60 min. The cells were removed, washed and resuspended in potassium phosphate buffer (0.1 M; pH 7.0).
as §4, with “of 3-cyanopyridine” for “of nicotinamide”, “the 3-cyanopyridine concentrations” for “the nicotinamide concentration”, “Table 10.” for “Table 11.”

[21] = culture medium with inducer 0.2% (w/v), 28° C., 3 days, substrate 3-cyanopyridine
[22] = culture medium with inducer 0.2% (w/v), 28° C., 3 days

In the case of `[Cl-].[Cl-].[Co+2]` [CoC12], the Relative activity [1] is reported as 110%, the Growth (Rhodococcus sp. FZ4 [2]) is reported as 2.79 OD610 nm and the Specific activity [3] is reported as 13.1 μmol/(min × ml × OD610 nm). The Total activity [3] was 38.1 µmol/min/mL.

With `NC(=O)c1cccnc1` [Nicotinamide] the Relative activity [4] was 100%, the “nitrile hydratase activity after incubation with nicotinamide” value [4] was “corresponded approximately to the original nitrile hydratase activity” and the Relative activity [5] was 100%. For the same compound, the Specific activity [6] was 1.39 μmol/(min × ml × OD610 nm), the Total activity [6] was 4.94 µmol/min/mL and the Growth (Rhodococcus sp. FZ4 [7]) was 3.55 OD610 nm.

For `CC(N)=O` [Acetamide], the “concentration of an acetamide solution saturated at 30° C.” value [8] is given as 220-230 g of acetamide in 100 ml of water, the Specific activity [6, 21] is given as 4.98 μmol/(min × ml × OD610 nm) and the Total activity [6, 21] is given as 21.6 µmol/min/mL. The Growth (Rhodococcus sp. FZ4 [7]; [22]) was 4.37 OD610 nm.

For `CC#N` [Acetonitrile], the “nitrile hydratase activity as a function of acetonitrile concentration” value [9] was “nearly constant”, the “nitrile hydratase activity after incubation with acetonitrile” value [10] was “nearly constant” and the Km [11] was 2.84 mM. The Specific activity [6] was 4.13 μmol/(min × ml × OD610 nm), the Total activity [6] was 18.4 µmol/min/mL and the Relative activity [12] was 1 008%. For the same compound, the Relative activity [13] was 646% and the Growth (Rhodococcus sp. FZ4 [7]) was 4.46 OD610 nm.

With `O=S(=O)([O-])[O-].[Fe+2]` [FeSO4] the Relative activity [1] was 113%, the Growth (Rhodococcus sp. FZ4 [2]) was 2.86 OD610 nm and the Specific activity [3] was 0.346 μmol/(min × ml × OD610 nm). It also gave a Total activity [3] of 0.989 µmol/min/mL.

With `N#Cc1cccnc1` [3-Cyanopyridine] the “nitrile hydratase activity after incubation with 3-cyanopyridine” value ([14]; 0 to 20% (w/v) for 60 minutes, 20° C.) was “corresponded approximately to the original nitrile hydratase activity”, the Relative activity ([14]; 3-cyanopyridine 2.5% (w/v)) was 100^a % and the Relative activity ([14]; 3-cyanopyridine 5.0% (w/v)) was 100^a %. For the same compound, the Relative activity ([14]; 3-cyanopyridine 7.5% (w/v)) was 100^a %, the Relative activity ([14]; 3-cyanopyridine 10.0% (w/v)) was 100^a % and the Relative activity ([15]; 3-cyanopyridine 2.5% (w/v)) was 74^b %. The Relative activity ([15]; 3-cyanopyridine 5.0% (w/v)) was 56^b %, the Relative activity ([15]; 3-cyanopyridine 7.5% (w/v)) was 47^b % and the Relative activity ([15]; 3-cyanopyridine 10.0% (w/v)) was 16^b %. For the same compound, the Km [16] was 80.5 mM, the Relative activity ([17]; 3-cyanopyridine 5.0% (w/v)) was 86^b % and the Relative activity ([17]; 3-cyanopyridine 10.0% (w/v)) was 63^b %. For the same compound, the Relative activity [18] was 100%, the Km [19] was 41.7 mM and the Specific activity [6, 21] was 2.21 μmol/(min × ml × OD610 nm). For the same compound, the Total activity [6, 21] was 12.3 µmol/min/mL, the Total activity ([12]; substrate concentration 0.25 M, corresponds to 100%) was “^aTotal activity: 4,164 μmol/(min × .ml)” and the Relative activity ([12]; substrate concentration 0.25 M, reference = 100) was 100^a %. For the same compound, the Relative activity ([13]; compound as substrate, 3-cyanopyridine = 100, resting cells, 20° C.) was 100%, the Growth (Rhodococcus sp. FZ4 [7]; [22]) was 5.54 OD610 nm and the Relative activity ([20]; 3-cyanopyridine 2.5% (w/v)) was 100^a %. For the same compound, the Relative activity ([20]; 3-cyanopyridine 5.0% (w/v)) was 100^a %, the Relative activity ([20]; 3-cyanopyridine 7.5% (w/v)) was 100^a % and the Relative activity ([20]; 3-cyanopyridine 10.0% (w/v)) was 100^a %.
